# Experimental data taken from patent US20040002482A1, “Androgen pharmaceutical composition and method for treating depression” (priority 2000, published 2004).
# Where two headings read alike, the source gives them in different places.
# Experiments:
# depression = conditions: cited from earlier work
# [1] = cited from earlier work
# [2] = system: major depressive disorder; experiment: Eight-week randomized placebo-controlled depression trial of testosterone gel: HAM-D, CGI, BDI; assay type: in vivo, treatment-refractory depressed men
# Procedure: Men age 30-65 years, presently taking an adequate dose of antidepressant medication (as defined by the manufacturer's published product information) for at least the last four weeks, but still complaining of depressive symptoms sufficient to meet DSM-IV criteria for current major depressive disorder. Subjects were initially screened. […] Subjects were then administered the depression module the Structured Clinical Interview for DSM-IV (SCID) to confirm the diagnosis of current major depressive disorder. Subjects were next administered the American Urological Association (AUA) Symptom Index for benign prostatic hyperplasia (B PH), subjects scoring higher than 14 on this index were excluded. Blood was then collected for total testosterone and PSA levels.
# (§1) Next, the subjects were administered: 1) basic demographic questions; 2) the remainder of the SCID; 3) questions regarding history of previous antidepressant drug treatment; 4) the HAM-D; 5) the BDI; 6) the Clinical Global Impression Scale (CGI); 7) medical history questions; 8) physical examination, including vital signs, height, weight, and digital rectal examination of the prostate; 9) laboratory tests for standard chemistries, hematology, urinalysis, and HIV serology; 10) electrocardiogram (EKG); and 11) determination of body fat with calipers, together with calculation of fat-free mass index (FFMI), a measure of muscularity previously developed in our laboratory.
# Qualifying subjects were then started on a one-week single-blind placebo washout with placebo gel. All subjects were asked to continue taking their existing antidepressant medications, together with any other medications that they were prescribed, at their present dose throughout the study.
# Baseline (Week 0): Subjects were assessed for scores on the HAM-D, BDI, and CGI-Severity of Illness; adverse events; and vital signs. Results from the laboratory tests drawn at screen and from EKG readings were also reviewed. […] Drug and placebo were supplied in identical-appearing packets that contained either 2.5 g of AndroGel or a placebo gel.
# Week 1: Subjects were assessed for scores on the HAM-D, BDI, and CGI (both Severity of Illness and Improvement as compared to Baseline); adverse events; and vital signs. Subjects provided blood for a total testosterone level, drawn at least four hours after the morning application of the gel.
# (§2) Weeks 2, 4, 6, and 8: Subjects were assessed at weeks 2, 4,6 and 8 for HAM-D, BDI, CGI, adverse events, and vital signs. Week 8, subjects received an additional determination of PSA and measurement of weight and body fat. The blind was then broken and the correct identity of treatment assignment determined.
# Statistical Analysis: Baseline characteristics of each group were compared using Fisher's exact test for categorical variables and the […] for continuous variables. Two populations of patients were defined: (1) an intent-to-treat group of patients with at least one available efficacy measure, and (2) a completers group, defined as patients who completed the 8-week treatment period.
# The primary protocol-defined analysis of efficacy was a repeated measures random regression analysis comparing the rate of change of scores on the HAM-D, BDI, and CGI-severity during the treatment period between groups, using methods described by Diggle et al. and Gibbons et al. A model was used for the mean of the outcome variable that included terms for treatment, time, and treatment-by-time interaction. Time as a continuous variable was modeled, with weeks ranging from 0 (Baseline) to 8 (after randomization). The measure of effect was the treatment-by-time interaction (or the difference in the rate of change per unit of time, or the difference in slope with respect to time) of the efficacy measure. […]
# body fat and muscle mass = experiment: Depression trial: percent body fat and fat-free mass index (FFMI); assay type: in vivo, treatment-refractory depressed men; conditions: study completers; mean (SD); not significant vs placebo
# Procedure: as §1, §2
# For laboratory measures, including body fat and FFMI, the mean difference between endpoint and baseline measures were used, and then compared the treatment groups using the t-test. The correlation coefficients were calculated by using rank-transformed data (Spearman rank correlation). All statistical tests were two-sided with alpha=0.05.
# body weight = conditions: patch delivering 150 ug/day; 12 weeks; cited from earlier work
# impaired sexual function = conditions: cited from earlier work; for serum free testosterone concentration: mean ± SD
# [3] = 10 grams of 1% gel daily added to existing antidepressant, 8 weeks
# [4] = Completers, Week 8 as endpoint, N = 10
# [5] = Intent to Treat, last observation carried forward, N = 11
smiles,measurement,setting,value
CCCCCCC(=O)O[C@H]1CC[C@H]2[C@@H]3CCC4=CC(=O)CC[C@]4(C)[C@H]3CC[C@]12C [testosterone enanthate],mean HAM-D score,"depression; eight weeks, 400 mg every two weeks i.m. with SSRI, 19.2 at baseline, five men",4.0
same,subjects responding (50% or greater reduction in HAM-D),"depression; randomized placebo-controlled trial, six weeks",About 40%
same,HAM-D or BDI difference vs placebo,"depression; randomized placebo-controlled trial, six weeks, testosterone alone",no significant difference between testosterone and placebo
C[C@]12CC[C@H]3[C@@H](CCC4=CC(=O)CC[C@@]43C)[C@@H]1CC[C@@H]2O [testosterone],bound to protein in the blood,[1]; in vivo,98%
same,half-life,[1]; reported in the literature,10 to 100 min
same,CGI-severity scores compared with placebo,[2]; [3],significantly greater rates of decrease
same,HAM-D scores compared with placebo,[2]; [3],significantly greater rate of decrease
same,"BDI, Total Score: mean change from baseline to endpoint",[2]; [4],−6.8
same,CGI-Improvement (mean),[2]; [4],2.9
same,CGI-Severity: mean change from baseline to endpoint,[2]; [4],−1.2
same,"HAM-D, Affective Subscale: mean change from baseline to endpoint",[2]; [4],−2.7
same,"HAM-D, Total score: mean change from baseline to endpoint",[2]; [4],−8.8
same,"HAM-D, Vegetative Subscale: mean change from baseline to endpoint",[2]; [4],−3.5
same,"BDI, Total Score: mean change from baseline to endpoint",[2]; [5],−5.5
same,CGI-Improvement (mean),[2]; [5],3.09
same,CGI-Severity: mean change from baseline to endpoint,[2]; [5],−0.9
same,"HAM-D, Affective Subscale: mean change from baseline to endpoint",[2]; [5],−2.1
same,"HAM-D, Total score: mean change from baseline to endpoint",[2]; [5],−7.4
same,"HAM-D, Vegetative Subscale: mean change from baseline to endpoint",[2]; [5],−3.2
same,change in muscle mass as expressed by FFMI,body fat and muscle mass,1.1 (0.9) kg/meter^2
same,change in percent body fat,body fat and muscle mass,−2.8 (1.7) %
same,increase in body weight,body weight,4%
same,serum free testosterone concentration,impaired sexual function; 160 μg per day (so in the source) transdermally,3.9 ± 2.4 pg/mL
same,serum free testosterone concentration,impaired sexual function; 300 μg per day transdermally,4.9 ± 4.8 pg/mL
same,"percentages of women with sexual fantasies, masturbation or intercourse at least once a week, increase from base line",impaired sexual function; 300 μg per day,two to three times
